Results reported in patent US20060088820A1 (priority 1999, published 2006).

Experiments:
[1] = tested on: blood mononucleated cells from healthy donor inoculated with MS virion fraction; type: cell-based, human
[2] = tested on: blood mononucleated cells from healthy donor

`Cc1cn([C@H]2C[C@H](N=[N+]=[N-])[C@@H](CO)O2)c(=O)[nH]c1=O` [AZT, azidodeoxythymidine] was tested, and the “Vβ16 expansion of the lymphocytes (FACS analysis of T subpopulations)” value [1] was “an absence or an inhibition of Vβ16 expansion” and the “cell mortality (toxicity tests, compound alone)” value [2] was “no significant cell mortality”.
`O=c1[nH]cnc2c1ncn2[C@H]1CC[C@@H](CO)O1` [DDI, dideoxyinosine] was tested, and the “Vβ16 expansion of the lymphocytes (FACS analysis of T subpopulations)” value [1] was “an absence of Vβ16 expansion”.
